Article PMC7311426, “An amphipathic peptide with antibiotic activity against multidrug-resistant Gram-negative bacteria” (Nature Communications, 2020)
In brackets after ≈: the same amount, converted by molar mass.

Columns and labels:
Assay in all cases: microbe, parasite or virus in culture
E. coli = tested on: E. coli
Procedure, shortened: (§1)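 MICs were scored by eye after 18-20 h static incubation at 37 °C, with bacteria at 5 × 10^5 CFU mL^−1 in MHB. Peptides were serially diluted 2-fold over 12 points, top 128 or 64 μg mL^−1. CAMHB (CLSI) and 1% agarose-MHB variants were also run, at least six replicates.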

P. aeruginosa = tested on: P. aeruginosa
Procedure, shortened: as §1

K. pneumoniae = tested on: K. pneumoniae
Procedure, shortened: as §1

## CN(C)c1cc(NC(=O)CNC(C)(C)C)c(O)c2c1C[C@H]1C[C@H]3[C@H](N(C)C)C(O)=C(C(N)=O)C(=O)[C@@]3(O)C(O)=C1C2=O [TIG]
E. coli; E. coli AUD172 parent strain not exposed to drug
  MIC, broth microdilution: 0.12 µg/mL (≈ 0.205 µM)
E. coli; E. coli AUD172 spontaneous mutant, AA139 selection 4X, plate 2, colony 2, drug-free passage 1
  MIC, broth microdilution: 0.12 µg/mL (≈ 0.205 µM)
E. coli; E. coli AUD172 spontaneous mutant, AA139 selection 4X, plate 2, colony 2, drug-free passage 5
  MIC, broth microdilution: 0.5 µg/mL (≈ 0.854 µM)
P. aeruginosa; P. aeruginosa ATCC 27853 parent strain not exposed to drug
  MIC, broth microdilution: 8 µg/mL (≈ 13.7 µM)
P. aeruginosa; P. aeruginosa ATCC 27853 spontaneous mutant, AA139 selection 4X, plate 1, colony 1, drug-free passage 1
  MIC, broth microdilution: 8, 8 µg/mL
P. aeruginosa; P. aeruginosa ATCC 27853 spontaneous mutant, AA139 selection 4X, plate 1, colony 1, drug-free passage 5
  MIC, broth microdilution: 8, 8 µg/mL
P. aeruginosa; P. aeruginosa ATCC 27853 spontaneous mutant, AA139 selection 4X, plate 1, colony 2, drug-free passage 1
  MIC, broth microdilution: 8, 8 µg/mL
P. aeruginosa; P. aeruginosa ATCC 27853 spontaneous mutant, AA139 selection 4X, plate 1, colony 2, drug-free passage 5
  MIC, broth microdilution: 8, 8 µg/mL
P. aeruginosa; P. aeruginosa ATCC 27853 spontaneous mutant, AA139 selection 4X, plate 1, colony 3, drug-free passage 1
  MIC, broth microdilution: 8, 8 µg/mL
P. aeruginosa; P. aeruginosa ATCC 27853 spontaneous mutant, AA139 selection 4X, plate 1, colony 3, drug-free passage 5
  MIC, broth microdilution: 8, 8 µg/mL
P. aeruginosa; P. aeruginosa ATCC 27853 spontaneous mutant, AA139 selection 4X, plate 1, colony 4, drug-free passage 1
  MIC, broth microdilution: 8, 8 µg/mL
P. aeruginosa; P. aeruginosa ATCC 27853 spontaneous mutant, AA139 selection 4X, plate 1, colony 4, drug-free passage 5
  MIC, broth microdilution: 8, 8 µg/mL
P. aeruginosa; P. aeruginosa ATCC 27853 spontaneous mutant, AA139 selection 4X, plate 1, colony 5, drug-free passage 1
  MIC, broth microdilution: 16, 16 µg/mL
P. aeruginosa; P. aeruginosa ATCC 27853 spontaneous mutant, AA139 selection 4X, plate 1, colony 5, drug-free passage 5
  MIC, broth microdilution: 16, 16 µg/mL
P. aeruginosa; P. aeruginosa ATCC 27853 spontaneous mutant, AA139 selection 4X, plate 1, colony 6, drug-free passage 1
  MIC, broth microdilution: 8, 8 µg/mL
P. aeruginosa; P. aeruginosa ATCC 27853 spontaneous mutant, AA139 selection 4X, plate 1, colony 6, drug-free passage 5
  MIC, broth microdilution: 8, 8 µg/mL
P. aeruginosa; P. aeruginosa ATCC 27853 spontaneous mutant, AA139 selection 4X, plate 2, colony 1, drug-free passage 1
  MIC, broth microdilution: 8, 8 µg/mL
P. aeruginosa; P. aeruginosa ATCC 27853 spontaneous mutant, AA139 selection 4X, plate 2, colony 1, drug-free passage 5
  MIC, broth microdilution: 8, 8 µg/mL
P. aeruginosa; P. aeruginosa ATCC 27853 spontaneous mutant, AA139 selection 4X, plate 2, colony 2, drug-free passage 1
  MIC, broth microdilution: 8, 8 µg/mL
P. aeruginosa; P. aeruginosa ATCC 27853 spontaneous mutant, AA139 selection 4X, plate 2, colony 2, drug-free passage 5
  MIC, broth microdilution: 8, 8 µg/mL
P. aeruginosa; P. aeruginosa ATCC 27853 spontaneous mutant, AA139 selection 4X, plate 2, colony 3, drug-free passage 1
  MIC, broth microdilution: 8, 8 µg/mL
P. aeruginosa; P. aeruginosa ATCC 27853 spontaneous mutant, AA139 selection 4X, plate 2, colony 3, drug-free passage 5
  MIC, broth microdilution: 8, 8 µg/mL
P. aeruginosa; P. aeruginosa ATCC 27853 spontaneous mutant, AA139 selection 4X, plate 2, colony 4, drug-free passage 1
  MIC, broth microdilution: 8, 8 µg/mL
P. aeruginosa; P. aeruginosa ATCC 27853 spontaneous mutant, AA139 selection 4X, plate 2, colony 4, drug-free passage 5
  MIC, broth microdilution: 8, 8 µg/mL
P. aeruginosa; P. aeruginosa ATCC 27853 spontaneous mutant, AA139 selection 8X, plate 1, colony 1, drug-free passage 1
  MIC, broth microdilution: 8, 8 µg/mL
P. aeruginosa; P. aeruginosa ATCC 27853 spontaneous mutant, AA139 selection 8X, plate 1, colony 1, drug-free passage 5
  MIC, broth microdilution: 8, 8 µg/mL
P. aeruginosa; P. aeruginosa ATCC 27853 spontaneous mutant, AA139 selection 8X, plate 1, colony 2, drug-free passage 1
  MIC, broth microdilution: 8, 8 µg/mL
P. aeruginosa; P. aeruginosa ATCC 27853 spontaneous mutant, AA139 selection 8X, plate 1, colony 2, drug-free passage 5
  MIC, broth microdilution: 8, 8 µg/mL
P. aeruginosa; P. aeruginosa ATCC 27853 spontaneous mutant, AA139 selection 8X, plate 1, colony 3, drug-free passage 1
  MIC, broth microdilution: 8, 8 µg/mL
P. aeruginosa; P. aeruginosa ATCC 27853 spontaneous mutant, AA139 selection 8X, plate 1, colony 3, drug-free passage 5
  MIC, broth microdilution: 8, 8 µg/mL
P. aeruginosa; P. aeruginosa ATCC 27853 spontaneous mutant, AA139 selection 8X, plate 1, colony 4, drug-free passage 1
  MIC, broth microdilution: 8, 8 µg/mL
P. aeruginosa; P. aeruginosa ATCC 27853 spontaneous mutant, AA139 selection 8X, plate 1, colony 4, drug-free passage 5
  MIC, broth microdilution: 8, 8 µg/mL
P. aeruginosa; P. aeruginosa ATCC 27853 spontaneous mutant, AA139 selection 8X, plate 1, colony 5, drug-free passage 1
  MIC, broth microdilution: 8, 8 µg/mL
P. aeruginosa; P. aeruginosa ATCC 27853 spontaneous mutant, AA139 selection 8X, plate 1, colony 5, drug-free passage 5
  MIC, broth microdilution: 8, 8 µg/mL
P. aeruginosa; P. aeruginosa UNT 138-1 parent strain not exposed to drug
  MIC, broth microdilution: 8 µg/mL (≈ 13.7 µM)
P. aeruginosa; P. aeruginosa UNT 138-1 spontaneous mutant, AA139 selection 4X, plate 1, colony 1, drug-free passage 1
  MIC, broth microdilution: 16, 16 µg/mL
P. aeruginosa; P. aeruginosa UNT 138-1 spontaneous mutant, AA139 selection 4X, plate 1, colony 1, drug-free passage 5
  MIC, broth microdilution: 16, 16 µg/mL
P. aeruginosa; P. aeruginosa UNT 138-1 spontaneous mutant, AA139 selection 4X, plate 1, colony 2, drug-free passage 1
  MIC, broth microdilution: 16, 16 µg/mL
P. aeruginosa; P. aeruginosa UNT 138-1 spontaneous mutant, AA139 selection 4X, plate 1, colony 2, drug-free passage 5
  MIC, broth microdilution: 16, 16 µg/mL
P. aeruginosa; P. aeruginosa UNT 138-1 spontaneous mutant, AA139 selection 4X, plate 1, colony 3, drug-free passage 1
  MIC, broth microdilution: 16, 16 µg/mL
P. aeruginosa; P. aeruginosa UNT 138-1 spontaneous mutant, AA139 selection 4X, plate 1, colony 3, drug-free passage 5
  MIC, broth microdilution: 16, 16 µg/mL
P. aeruginosa; P. aeruginosa UNT 138-1 spontaneous mutant, AA139 selection 4X, plate 1, colony 4, drug-free passage 1
  MIC, broth microdilution: 16, 16 µg/mL
P. aeruginosa; P. aeruginosa UNT 138-1 spontaneous mutant, AA139 selection 4X, plate 1, colony 4, drug-free passage 5
  MIC, broth microdilution: 16, 16 µg/mL
P. aeruginosa; P. aeruginosa UNT 138-1 spontaneous mutant, AA139 selection 4X, plate 1, colony 5, drug-free passage 1
  MIC, broth microdilution: 16, 16 µg/mL
P. aeruginosa; P. aeruginosa UNT 138-1 spontaneous mutant, AA139 selection 4X, plate 1, colony 5, drug-free passage 5
  MIC, broth microdilution: 16, 16 µg/mL
P. aeruginosa; P. aeruginosa UNT 138-1 spontaneous mutant, AA139 selection 4X, plate 1, colony 6, drug-free passage 1
  MIC, broth microdilution: 16, 16 µg/mL
P. aeruginosa; P. aeruginosa UNT 138-1 spontaneous mutant, AA139 selection 4X, plate 1, colony 6, drug-free passage 5
  MIC, broth microdilution: 16, 16 µg/mL
P. aeruginosa; P. aeruginosa UNT 138-1 spontaneous mutant, AA139 selection 4X, plate 1, colony 7, drug-free passage 1
  MIC, broth microdilution: 16, 16 µg/mL
P. aeruginosa; P. aeruginosa UNT 138-1 spontaneous mutant, AA139 selection 4X, plate 1, colony 7, drug-free passage 5
  MIC, broth microdilution: 16, 16 µg/mL
P. aeruginosa; P. aeruginosa UNT 138-1 spontaneous mutant, AA139 selection 4X, plate 2, colony 1, drug-free passage 1
  MIC, broth microdilution: 16, 16 µg/mL
P. aeruginosa; P. aeruginosa UNT 138-1 spontaneous mutant, AA139 selection 4X, plate 2, colony 1, drug-free passage 5
  MIC, broth microdilution: 16, 16 µg/mL
P. aeruginosa; P. aeruginosa UNT 138-1 spontaneous mutant, AA139 selection 4X, plate 2, colony 2, drug-free passage 1
  MIC, broth microdilution: 16, 16 µg/mL
P. aeruginosa; P. aeruginosa UNT 138-1 spontaneous mutant, AA139 selection 4X, plate 2, colony 2, drug-free passage 5
  MIC, broth microdilution: 16, 16 µg/mL
P. aeruginosa; P. aeruginosa UNT 138-1 spontaneous mutant, AA139 selection 4X, plate 2, colony 3, drug-free passage 1
  MIC, broth microdilution: 16, 16 µg/mL
P. aeruginosa; P. aeruginosa UNT 138-1 spontaneous mutant, AA139 selection 4X, plate 2, colony 3, drug-free passage 5
  MIC, broth microdilution: 16, 16 µg/mL
P. aeruginosa; P. aeruginosa UNT 138-1 spontaneous mutant, AA139 selection 4X, plate 2, colony 4, drug-free passage 1
  MIC, broth microdilution: 16, 16 µg/mL
P. aeruginosa; P. aeruginosa UNT 138-1 spontaneous mutant, AA139 selection 4X, plate 2, colony 4, drug-free passage 5
  MIC, broth microdilution: 16, 16 µg/mL
P. aeruginosa; P. aeruginosa UNT 138-1 spontaneous mutant, AA139 selection 4X, plate 2, colony 5, drug-free passage 1
  MIC, broth microdilution: 16, 16 µg/mL
P. aeruginosa; P. aeruginosa UNT 138-1 spontaneous mutant, AA139 selection 4X, plate 2, colony 5, drug-free passage 5
  MIC, broth microdilution: 16, 16 µg/mL
P. aeruginosa; P. aeruginosa UNT 138-1 spontaneous mutant, AA139 selection 4X, plate 2, colony 6, drug-free passage 1
  MIC, broth microdilution: 16, 16 µg/mL
P. aeruginosa; P. aeruginosa UNT 138-1 spontaneous mutant, AA139 selection 4X, plate 2, colony 6, drug-free passage 5
  MIC, broth microdilution: 16, 16 µg/mL
P. aeruginosa; P. aeruginosa UNT 138-1 spontaneous mutant, AA139 selection 4X, plate 2, colony 7, drug-free passage 1
  MIC, broth microdilution: 8 µg/mL (≈ 13.7 µM)
P. aeruginosa; P. aeruginosa UNT 138-1 spontaneous mutant, AA139 selection 4X, plate 2, colony 7, drug-free passage 5
  MIC, broth microdilution: 16 µg/mL (≈ 27.3 µM)
P. aeruginosa; P. aeruginosa UNT 138-1 spontaneous mutant, AA139 selection 8X, plate 1, colony 1, drug-free passage 1
  MIC, broth microdilution: 8 µg/mL (≈ 13.7 µM)
P. aeruginosa; P. aeruginosa UNT 138-1 spontaneous mutant, AA139 selection 8X, plate 1, colony 1, drug-free passage 5
  MIC, broth microdilution: 16 µg/mL (≈ 27.3 µM)
P. aeruginosa; P. aeruginosa UNT 138-1 spontaneous mutant, AA139 selection 8X, plate 1, colony 2, drug-free passage 1
  MIC, broth microdilution: 8 µg/mL (≈ 13.7 µM)
P. aeruginosa; P. aeruginosa UNT 138-1 spontaneous mutant, AA139 selection 8X, plate 1, colony 2, drug-free passage 5
  MIC, broth microdilution: 16 µg/mL (≈ 27.3 µM)
P. aeruginosa; P. aeruginosa UNT 138-1 spontaneous mutant, AA139 selection 8X, plate 1, colony 3, drug-free passage 1
  MIC, broth microdilution: 8 µg/mL (≈ 13.7 µM)
P. aeruginosa; P. aeruginosa UNT 138-1 spontaneous mutant, AA139 selection 8X, plate 1, colony 3, drug-free passage 5
  MIC, broth microdilution: 16 µg/mL (≈ 27.3 µM)
P. aeruginosa; P. aeruginosa UNT 138-1 spontaneous mutant, AA139 selection 8X, plate 1, colony 4, drug-free passage 1
  MIC, broth microdilution: 8 µg/mL (≈ 13.7 µM)
P. aeruginosa; P. aeruginosa UNT 138-1 spontaneous mutant, AA139 selection 8X, plate 1, colony 4, drug-free passage 5
  MIC, broth microdilution: 16 µg/mL (≈ 27.3 µM)
P. aeruginosa; P. aeruginosa UNT 138-1 spontaneous mutant, AA139 selection 8X, plate 1, colony 5, drug-free passage 1
  MIC, broth microdilution: 16, 16 µg/mL
P. aeruginosa; P. aeruginosa UNT 138-1 spontaneous mutant, AA139 selection 8X, plate 1, colony 5, drug-free passage 5
  MIC, broth microdilution: 16, 16 µg/mL
P. aeruginosa; P. aeruginosa UNT 138-1 spontaneous mutant, AA139 selection 8X, plate 2, colony 1, drug-free passage 1
  MIC, broth microdilution: 16, 16 µg/mL
P. aeruginosa; P. aeruginosa UNT 138-1 spontaneous mutant, AA139 selection 8X, plate 2, colony 1, drug-free passage 5
  MIC, broth microdilution: 16, 16 µg/mL
K. pneumoniae; K. pneumoniae 3010 parent strain not exposed to drug
  MIC, broth microdilution: 0.5 µg/mL (≈ 0.854 µM)
K. pneumoniae; K. pneumoniae 3010 spontaneous mutant, AA139 selection 4X, plate 1, colony 1, drug-free passage 1
  MIC, broth microdilution: 0.5, 0.5 µg/mL
K. pneumoniae; K. pneumoniae 3010 spontaneous mutant, AA139 selection 4X, plate 1, colony 1, drug-free passage 5
  MIC, broth microdilution: 0.5, 0.5 µg/mL
K. pneumoniae; K. pneumoniae 3010 spontaneous mutant, AA139 selection 8X, plate 1, colony 1, drug-free passage 1
  MIC, broth microdilution: 0.5, 0.5 µg/mL
K. pneumoniae; K. pneumoniae 3010 spontaneous mutant, AA139 selection 8X, plate 1, colony 1, drug-free passage 5
  MIC, broth microdilution: 0.5, 0.5 µg/mL
K. pneumoniae; K. pneumoniae ST258 parent strain not exposed to drug
  MIC, broth microdilution: 0.5 µg/mL (≈ 0.854 µM)
K. pneumoniae; K. pneumoniae ST258 spontaneous mutant, AA139 selection 4X, plate 1, colony 1, drug-free passage 1
  MIC, broth microdilution: 0.5, 0.5 µg/mL
K. pneumoniae; K. pneumoniae ST258 spontaneous mutant, AA139 selection 4X, plate 1, colony 1, drug-free passage 5
  MIC, broth microdilution: 0.5, 0.5 µg/mL
